# Source: patent US20090298857A1, “Treatment of Neurodegenerative Diseases Through Inhibition of HSP90” (SLOAN-KETTERING INSTITUTE FOR CANCER RESEARCH, priority 2006, published 2009)
# “And” between values parts separate entries of the source, which are not always exact repeats. Equal values may be shown once.
# Columns and labels:
# [1] = Assessment of PU-DZ8 brain levels by HPLC/MS/MS; assay type: in vivo, mice; details: 75 mg/kg i.p.
# Method: Assessment of PU-DZ8 brain levels. Concentrations of compound were determined and quantitated by a MRM mode using a tandem high-performance liquid chromatography-mass/mass spectrometry (HPLC/MS/MS). A weighed piece of brain was rinsed with saline isotonic solution, dried with gauze and then homogenized in mobile phase (acetonitrile (ACN)/0.1% formic acid=1.2/2.8, v/v). Haloperidol was added as internal standard. PU-DZ8 was extracted in methylene chloride, the organic layer was separated, speedily dried under vacuum and reconstituted in the mobile phase. Compound analysis was performed in the API 4000™ LC/MS/MS (Applied Biosystems) which was coupled with a Shimadzu LC system and a 96-well plate autosampler. A Gemini C18 column (5 μ particle size, 50×4.6 mm I.D.) was used for the LC separation. The analyte was eluted under an isocratic condition for 4 min at a flow rate of 0.4 mL/min.
# One dose of PU-DZ8 (75 mg/kg) was administered intraperitoneally (i.p.) to female mice of 2.5-4 months in age (n=32) and animals were sacrificed in the interval of 0 to 36 h. Both aggregate-free Tau (S1) and insoluble Tau (P3) fractions were prepared from the subcortical and cortical regions of these mice. PU-DZ8 levels in the brain reached 0.35 μg/g (˜700 nM) at 4 h, and the pharmacologically relevant dose was retained for at least 12 h post-administration (0.2 μg/g, ˜390 nM).
# [2] = ref. (2); cited from earlier work
# [3] = system: p35 and tau phosphorylation in whole brains; assay: Five day PU-DZ8 treatment of nine-month old JNPL3 mice; assay type: in vivo
# From the text: Transgenic mice: Transgenic mice, JNPL3 line (59) overexpressing mutant human tau (P301L, 4R0N) were used in this study. Mice were heterozygous and on a mixed hybrid genetic background composed of C57BL/DBA2/SW, as published in ref. 59. These mice develop NFTs in the basal telencephalon, diencephalon, brainstem, and spinal cord, with severe pathology accompanied by degeneration in the spinal cord leading to dystonia, paralysis, and death in mice >12 months in age. Nine month-old male JNPL3 mice (n=2) were treated intraperitoneally with PU-DZ8 or vehicle for 5 days. Mice were sacrificed 12 h after last treatment by cervical dislocation under anesthesia.
# To further examine the effect of Hsp90 on tau phosphorylation, we used the JNPL3 line of mice expressing mutant (P301L) tau protein (59). Genetic analyses have linked mutations in the tau gene to FTDP-17 (60, 61). Over 20 distinct pathogenic mutations have been identified, with P301L as the most common mutation in tauophaties (33). […] The tau protein in JNPL3 is predominantly human and is phosphorylated at multiple sites: T181 (AT270). S202/T205 (AT8), T212 (AT100), T231 (AT180), S262, S396/S404, S409 and S422 (59, 62). […] The degree of p35 expression translated well into alleviation of phosphorylation. […] However, in mice where effects were more prominent and p35 expression declined to approximately 20% as compared to control, a significant effect on tau phosphorylation at S202/T205 and T212/S214 and a 50% reduction on T231 was observed. We could not detect a significant amount of tau phosphorylation at T181, site found to be hyperphosphorylated in PHF, tangles and neurofilaments (65). Again, whole brain expression of cdk5 was not affected (FIG. 3).
compound,measurement,setting,value
CC(C)NCCCn1c(Cc2cc3c(cc2I)OCO3)nc2c(N)nc(F)nc21 [PU-DZ8],level in the brain,[1]; 4 h,0.35 μg/g and ~700 nM
same,level in the brain,[1]; 12 h post-administration,0.2 μg/g and ~390 nM
same,water solubility,[2],water soluble
same,levels of compound in brain,[3]; 5 days i.p.,Pharmacologically relevant levels
same,whole brain expression of cdk5,[3]; 5 days i.p.,not affected
same,reduction in p35 levels,"[3]; 5 days i.p., whole brain",50%
same,effect on tau phosphorylation at S202/T205 (Ab AT-8),[3]; at 50% reduction in p35 levels,approximately similar effect
same,reduction of phosphorylation on T212/S214 (Ab AT-100),[3]; at 50% reduction in p35 levels,almost completely
same,effect on tau phosphorylated at T231 (Ab AT-180),[3]; at a reduction by 50% in p35 expression,No significant effect
same,p35 expression as compared to control,[3]; mice where effects were more prominent,approximately 20%
same,reduction of tau phosphorylation on T231,[3]; mice with p35 expression approximately 20% of control,50%
